From paper PMC13128454, “Mutant p53 protein accumulation is selectively targetable by proximity-inducing drugs” (Nature Chemical Biology, 2025)
Values joined by “and” are separate entries in the source; they are usually repeats but may differ in a detail not shown here. Equal entries are not always repeated.

Experiments:
Type in all cases: cell-based
[1] = tested on: parental 293T cells; assay: annexin–PI staining; details: for P3_avg (P3 = early apoptotic) / P5_avg (P5 = late apoptotic): Cell_Line WT, proportion of cells; for avgprop_P3 / avgprop_P4 / avgprop_P5 / avgprop_P2 / P2_viable / P3_AnnexinPos_PIneg / P4_PIpos_AnnexinNeg / P5_PIpos_Annexinpos / prop_P3 / prop_P4 / prop_P5 / prop_P2: WT; for avgprop_P3: average proportion AnnexinPos PIneg; for avgprop_P4: average proportion PIpos AnnexinNeg; for avgprop_P5: average proportion PIpos Annexinpos; for avgprop_P2: average proportion viable; for P2_viable / P3_AnnexinPos_PIneg / P4_PIpos_AnnexinNeg / P5_PIpos_Annexinpos: event count; for P2_viable / P3_AnnexinPos_PIneg / P4_PIpos_AnnexinNeg / P5_PIpos_Annexinpos / prop_P3 / prop_P4 / prop_P5 / prop_P2: single replicate; for prop_P3: proportion AnnexinPos PIneg; for prop_P4: proportion PIpos AnnexinNeg; for prop_P5: proportion PIpos Annexinpos; for prop_P2: proportion viable
Method: Cells were plated in six-well plates and treated with varying concentrations of compounds for 1 day. Cells were stained with annexin V–AF488 and PI following the manufacturer’s instructions (Thermo Fisher, V13241) and analyzed by flow cytometry (Beckman CytoFLEX LX), using untreated cells to establish gates.

[2] = tested on: Halo–p53-Y220C ΔTAD–mCherry 293T cells versus parental 293T cells; assay: flow-cytometry growth competition; details: for normalized_mCherry_percentage: Y220C, day 8, normalized to DMSO
Method: (§1) Cells with and without a fluorescent marker (for example, Halo–p53–mCherry) were mixed and the resulting solution was plated in six-well plates or 10-cm dishes at low density; compound was added at varying concentrations. After reaching confluence, cells were passaged and retreated with compound if needed. Otherwise, cells were trypsinized, washed and resuspended in complete growth medium in 96-well plates or tubes for flow cytometry. Untreated cell mixtures were used to establish gates separating the fluorophore^+/− populations. Analysis was conducted on a CytoFLEX LX flow cytometer.

[3] = tested on: Calu-1 cells stably expressing Halo–p53-R273H (FL)–mCherry versus parental Calu-1 cells; assay: flow-cytometry growth competition; details: sheet S2E
Method: as §1

[4] = tested on: MFE319 cells stably expressing sgTP53–Cas9–EGFP versus parental MFE319 cells; assay: flow-cytometry growth competition
Method: as §1

[5] = tested on: Halo–p53-Y220C ΔTAD–mCherry 293T cells; assay: caspase 3/7 glo; details: for mean_norm (caspase 3/7 glo): Cell_Line Y220C, normalized to Concentration 0; for raw caspase 3/7 glo signal, single replicate: Y220C
Method: (§2) Cells were plated in 384-well plates (typically 1,500 cells per well) with varying concentrations of compounds with a total volume of 50 μl per well. After 1 day, caspase 3/7 glo reagent (Promega) was added following the manufacturer’s protocol and read out using an EnVision 2105 multimode plate reader.

[6] = tested on: parental 293T cells; assay: caspase 3/7 glo; details: for mean_norm (caspase 3/7 glo): Cell_Line WT, normalized to Concentration 0; for raw caspase 3/7 glo signal, single replicate: WT
Method: as §2

[7] = tested on: parental 293T cells; assay: cell-cycle analysis (DNA content, DAPI flow cytometry); details: WT, 1 day
Method: Cells were split into a 10-cm dish at low confluency (20%) and grown overnight. Cells were synchronized using overnight treatment with palbociclib (150 nM), washed and split into a six-well plate for treatment with compound for 24 h. Cells were harvested by trypsinization, washed twice with cold 1× PBS, fixed by dropwise addition of ice-cold 70% ethanol while vortexing and incubated overnight (4 °C). Fixed samples were centrifuged at 1,000g for 5 min and 70% ethanol was removed. Cells were washed twice with 1× PBS + 1% BSA before DNA labeling with 1 µg ml^−1 DAPI for 10 min at room temperature, before being analyzed for DNA content by flow cytometry (Beckman CytoFLEX LX).

[8] = Conc 0.38 (unit not given; p53-01 in μM, BI2536 in nM)
[9] = Conc 0.75 (unit not given; p53-01 in μM, BI2536 in nM)
[10] = Conc 1.50 (unit not given; p53-01 in μM, BI2536 in nM)
[11] = Conc 10.00 (unit not given; per b27 BI2536 in nM)

SMILES: CC[C@@H]1C(=O)N(C)c2cnc(Nc3ccc(C(=O)NC4CCN(C)CC4)cc3OC)nc2N1C1CCCC1 [BI2536]
- P3_avg (P3 = early apoptotic) ([1]; Concentration 0.75): 0.04079
- P5_avg (P5 = late apoptotic) ([1]; Concentration 0.75): 0.01489
- P3_avg (P3 = early apoptotic) ([1]; Concentration 1.5): 0.1126
- P5_avg (P5 = late apoptotic) ([1]; Concentration 1.5): 0.03242
- avgprop_P3 ([1]; Concentration 0.75): 0.04079
- avgprop_P4 ([1]; Concentration 0.75): 0.03008
- avgprop_P5 ([1]; Concentration 0.75): 0.01489
- avgprop_P2 ([1]; Concentration 0.75): 0.9142
- P2_viable ([1]; Concentration 0.75): 2015 and 2037 and 2022
- P3_AnnexinPos_PIneg ([1]; Concentration 0.75): 93 and 83 and 95
- P4_PIpos_AnnexinNeg ([1]; Concentration 0.75): 62 and 58 and 80
- P5_PIpos_Annexinpos ([1]; Concentration 0.75): 28 and 35 and 36
- prop_P3 ([1]; Concentration 0.75): 0.04231 and 0.03751 and 0.04254
- prop_P4 ([1]; Concentration 0.75): 0.02821 and 0.02621 and 0.03583
- prop_P5 ([1]; Concentration 0.75): 0.01274 and 0.01582 and 0.01612
- prop_P2 ([1]; Concentration 0.75): 0.9167 and 0.9205 and 0.9055
- avgprop_P3 ([1]; Concentration 1.5): 0.1126
- avgprop_P4 ([1]; Concentration 1.5): 0.02945
- avgprop_P5 ([1]; Concentration 1.5): 0.03242
- avgprop_P2 ([1]; Concentration 1.5): 0.8255
- P2_viable ([1]; Concentration 1.5): 1572 and 1534 and 1608
- P3_AnnexinPos_PIneg ([1]; Concentration 1.5): 206 and 222 and 215
- P4_PIpos_AnnexinNeg ([1]; Concentration 1.5): 60 and 57 and 51
- P5_PIpos_Annexinpos ([1]; Concentration 1.5): 54 and 71 and 60
- prop_P3 ([1]; Concentration 1.5): 0.1089 and 0.1178 and 0.1112
- prop_P4 ([1]; Concentration 1.5): 0.03171 and 0.03025 and 0.02637
- prop_P5 ([1]; Concentration 1.5): 0.02854 and 0.03769 and 0.03102
- prop_P2 ([1]; Concentration 1.5): 0.8309 and 0.8142 and 0.8314
- activity / difference in cell survival in competition ([2]; 8-day competition): did not observe any activity
- normalized_mCherry_percentage ([2]; 0.02 nM): 98.51%
- normalized_mCherry_percentage ([2]; 0.2 nM): 98.69%
- normalized_mCherry_percentage ([2]; 1 nM): 100.1%
- normalized_mCherry_percentage ([2]; 5 nM): 117.7%
- mCherry_percent ([3]; 0.1 nM): 80.66%
- mCherry_percent ([3]; 1 nM): 80.59%
- mCherry_percent ([3]; 10 nM): 80.93%
- merge_avg (growth competition, sheet 4H) ([4]; Concentration (pM) 19.5312): 0.9382
- merge_avg (growth competition, sheet 4H) ([4]; Concentration (pM) 78.125): 0.9005
- merge_avg (growth competition, sheet 4H) ([4]; Concentration (pM) 312.5): 0.9194
- merge_avg (growth competition, sheet 4H) ([4]; Concentration (pM) 1250): 0.8118
- enrichment of EGFP^+ (TP53-knockout) population ([4]; day 9, p53-01 at doses between 800 nM and 1.25 μM): no such activity
- mean_norm (caspase 3/7 glo) ([5]; Concentration 0.0195312): 0.7877
- mean_norm (caspase 3/7 glo) ([5]; Concentration 0.0390625): 0.7982
- mean_norm (caspase 3/7 glo) ([5]; Concentration 0.078125): 0.8973
- mean_norm (caspase 3/7 glo) ([5]; Concentration 0.15625): 0.6969
- mean_norm (caspase 3/7 glo) ([5]; Concentration 0.3125): 0.7125
- mean_norm (caspase 3/7 glo) ([5]; Concentration 0.625): 0.7879
- mean_norm (caspase 3/7 glo) ([5]; Concentration 1.25): 1.419
- mean_norm (caspase 3/7 glo) ([5]; Concentration 2.5): 1.997
- mean_norm (caspase 3/7 glo) ([5]; Concentration 5): 1.954
- mean_norm (caspase 3/7 glo) ([5]; Concentration 10): 2.025
- raw caspase 3/7 glo signal, single replicate ([5]; Concentration 19.5312): 115256 and 127200 and 115855 and 132591
- raw caspase 3/7 glo signal, single replicate ([5]; Concentration 39.0625): 137775 and 105993 and 131607 and 122061
- raw caspase 3/7 glo signal, single replicate ([5]; Concentration 78.125): 135249 and 137668 and 143467 and 142866
- raw caspase 3/7 glo signal, single replicate ([5]; Concentration 156.25): 101297 and 110278 and 108541 and 114189
- raw caspase 3/7 glo signal, single replicate ([5]; Concentration 312.5): 98096 and 116170 and 98914 and 130859
- raw caspase 3/7 glo signal, single replicate ([5]; Concentration 625): 117128 and 121353 and 128759 and 123804
- raw caspase 3/7 glo signal, single replicate ([5]; Concentration 1250): 212391 and 226804 and 198553 and 246616
- raw caspase 3/7 glo signal, single replicate ([5]; Concentration 2500): 314760 and 286983 and 322612 and 319985
- raw caspase 3/7 glo signal, single replicate ([5]; Concentration 5000): 280409 and 304325 and 302507 and 330408
- raw caspase 3/7 glo signal, single replicate ([5]; Concentration 10000): 320499 and 297797 and 322913 and 320880
- mean_norm (caspase 3/7 glo) ([6]; Concentration 0.0195312): 0.9498
- mean_norm (caspase 3/7 glo) ([6]; Concentration 0.0390625): 0.9355
- mean_norm (caspase 3/7 glo) ([6]; Concentration 0.078125): 1.009
- mean_norm (caspase 3/7 glo) ([6]; Concentration 0.15625): 0.7951
- mean_norm (caspase 3/7 glo) ([6]; Concentration 0.3125): 0.7961
- mean_norm (caspase 3/7 glo) ([6]; Concentration 0.625): 0.9439
- mean_norm (caspase 3/7 glo) ([6]; Concentration 1.25): 1.163
- mean_norm (caspase 3/7 glo) ([6]; Concentration 2.5): 1.635
- mean_norm (caspase 3/7 glo) ([6]; Concentration 5): 1.96
- mean_norm (caspase 3/7 glo) ([6]; Concentration 10): 2.136
- raw caspase 3/7 glo signal, single replicate ([6]; Concentration 19.5312): 101820 and 113248 and 111453 and 123771
- raw caspase 3/7 glo signal, single replicate ([6]; Concentration 39.0625): 126417 and 91473 and 129554 and 96056
- raw caspase 3/7 glo signal, single replicate ([6]; Concentration 78.125): 125458 and 106940 and 132813 and 113259
- raw caspase 3/7 glo signal, single replicate ([6]; Concentration 156.25): 92236 and 94370 and 93114 and 97215
- raw caspase 3/7 glo signal, single replicate ([6]; Concentration 312.5): 90006 and 94305 and 93528 and 99564
- raw caspase 3/7 glo signal, single replicate ([6]; Concentration 625): 118546 and 104034 and 117323 and 107564
- raw caspase 3/7 glo signal, single replicate ([6]; Concentration 1250): 131108 and 131356 and 152167 and 136802
- raw caspase 3/7 glo signal, single replicate ([6]; Concentration 2500): 182654 and 187485 and 215491 and 189535
- raw caspase 3/7 glo signal, single replicate ([6]; Concentration 5000): 226831 and 221170 and 240802 and 240601
- raw caspase 3/7 glo signal, single replicate ([6]; Concentration 10000): 259590 and 240701 and 269097 and 243095
- 2N [7, 8]: 60.20
- 4N [7, 8]: 37.88
- Right_of_Gate1 (replicates) [7, 8]: 39.80 and 40.72 and 40.28
- Right_of_Gate2 (replicates) [7, 8]: 1.92 and 1.75 and 1.63
- 2N [7, 9]: 60.97
- 4N [7, 9]: 37.16
- Right_of_Gate1 (replicates) [7, 9]: 39.03 and 39.73 and 39.74
- Right_of_Gate2 (replicates) [7, 9]: 1.87 and 1.62 and 1.66
- 2N [7, 10]: 59.07
- 4N [7, 10]: 38.46
- Right_of_Gate1 (replicates) [7, 10]: 40.93 and 41.63 and 42.56
- Right_of_Gate2 (replicates) [7, 10]: 2.47 and 2.39 and 2.53
- 2N [7, 11]: 2.57
- 4N [7, 11]: 4.74
- Right_of_Gate1 (replicates) [7, 11]: 97.43 and 97.32 and 97.36
- Right_of_Gate2 (replicates) [7, 11]: 92.69 and 91.65 and 92.21
